# Laboratory results: patent US9440957B2, “Compounds and compositions for modulating EGFR Activity” (Novartis AG, priority 2012, dated 2016)
# Read-outs that look alike come from different tables or passages of the source.
# Legend:
# EGFR(L858R/T790M) = molecular target: T1, EGFR(L858R/T790M) (Homo sapiens, UniProt P00533, L858R/T790M); assay: EGFR biochemical assay (HTRF), IC50 determinations
# T1 construct: purchased from Carna (GST-a.a. 669-1210)
# Description: All EGFR biochemical assays were carried out by HTRF method. […] The substrate peptide Biotin-TK-peptide was purchased from Cis-Bio. […] All reactions were carried out at room temperature in white ProxiPlate™ 384-well Plus plates (PerkinElmer) and were quenched with 5 μL of 0.2 M EDTA at 60 min. Five L of the detection reagents (2.5 ng PT66K and 0.05 μg SAXL per well) were added, the plates were incubated at room temperature for 1 h and then read in EnVision reader. […] For no-preincubation condition, the compounds were added to the assay solution containing ATP and peptide, and the reaction was initiated by addition of enzyme. For pre-incubation conditions, the compounds were added to the assay solution containing enzyme and peptide, and pre-incubated at room temperature for desired period of time, then the reaction was initiated by addition of ATP.
# [1] = molecular target: human EGFR WT (NIH/3T3 cells, EGF-induced) (Homo sapiens, UniProt P00533); assay: EGFR target modulation in engineered NIH/3T3 cell lines (phospho-EGFR Y1068 AlphaLISA), EGFR WT; type: cell-based; conditions: engineered NIH/3T3 cells, read-out: NIH3T3 IC50 (μM) EGFR (WT)
# Sequence of human EGFR WT (NIH/3T3 cells, EGF-induced) (P00533 25-1210): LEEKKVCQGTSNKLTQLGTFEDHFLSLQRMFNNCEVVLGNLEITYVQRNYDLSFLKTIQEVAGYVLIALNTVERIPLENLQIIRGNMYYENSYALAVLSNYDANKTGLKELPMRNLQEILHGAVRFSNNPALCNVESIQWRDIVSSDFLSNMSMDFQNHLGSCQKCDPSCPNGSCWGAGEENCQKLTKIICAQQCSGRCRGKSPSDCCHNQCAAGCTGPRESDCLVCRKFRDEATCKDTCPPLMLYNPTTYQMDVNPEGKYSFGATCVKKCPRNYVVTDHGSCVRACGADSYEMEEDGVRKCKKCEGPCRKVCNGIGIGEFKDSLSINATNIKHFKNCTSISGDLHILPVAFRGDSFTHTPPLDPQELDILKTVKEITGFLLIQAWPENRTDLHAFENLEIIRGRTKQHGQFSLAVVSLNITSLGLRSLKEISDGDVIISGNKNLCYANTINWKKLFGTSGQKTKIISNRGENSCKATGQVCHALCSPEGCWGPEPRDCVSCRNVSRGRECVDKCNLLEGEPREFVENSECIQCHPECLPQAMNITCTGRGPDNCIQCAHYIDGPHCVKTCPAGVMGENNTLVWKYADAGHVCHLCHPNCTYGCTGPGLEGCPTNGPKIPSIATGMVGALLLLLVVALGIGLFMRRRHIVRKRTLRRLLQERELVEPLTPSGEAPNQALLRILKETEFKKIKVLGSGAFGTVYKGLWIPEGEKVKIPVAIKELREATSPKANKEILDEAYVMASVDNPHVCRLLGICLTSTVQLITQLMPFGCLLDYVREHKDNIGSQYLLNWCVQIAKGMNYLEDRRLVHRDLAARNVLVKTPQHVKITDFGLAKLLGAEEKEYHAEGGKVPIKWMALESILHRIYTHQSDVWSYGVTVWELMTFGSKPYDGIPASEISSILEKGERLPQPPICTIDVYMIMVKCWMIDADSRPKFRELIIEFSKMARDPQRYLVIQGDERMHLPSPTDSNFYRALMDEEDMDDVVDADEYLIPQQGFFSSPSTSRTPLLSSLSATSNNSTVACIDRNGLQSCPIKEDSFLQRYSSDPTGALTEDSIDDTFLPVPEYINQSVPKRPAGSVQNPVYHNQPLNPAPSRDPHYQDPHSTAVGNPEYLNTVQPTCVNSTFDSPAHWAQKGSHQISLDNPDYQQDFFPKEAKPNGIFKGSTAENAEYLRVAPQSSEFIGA
# Description: (§1) EGFR Target Modulation in Engineered NIH/3T3 Cell Lines Tissue Culture.
# (§2) The cells were harvested with 0.05% Trypsin/EDTA (Hyclone #SH30236.01), re-suspended in 5% FBS/DMEM Pen/Strep without Puromycin and plated at 9,000 cells per well in 50 μl of media in a 384-well black plate with clear bottoms (Greiner #789068G). The cells were allowed to incubate overnight in a 37° C., 5% CO2 humidified tissue culture incubator. A 12-point test compound curve was prepared by serial diluting a 10 μM stock 1:3 in DMSO in a 384-well compound plate (Greiner #789201L). The serial diluted compounds were transferred to the plate containing cells by using a 50 nl Pin Head device (Perkin Elmer) and the cells were placed back in the incubator for 3 hours. Only the EGFR WT-expressing cells were induced with 50 ng/ml EGF (Preprotech #AF-100-15) for 5 minutes before lysis. […] The plates were shaken at 4° C. for 5 minutes with foil top at maximum speed. […] The plates were sealed with a foil top and frozen at −80° C. and thawed when needed.
# (§3) The frozen aliquots were thawed and briefly centrifuged. All antibodies and beads were diluted in 1× AlphaLISA HiBlock Buffer (PE #AL004C). […] Goat anti-total EGFR (R&D Systems #AF231) was added and allowed to equilibrate for 1 hour at room temperature at 1 nM final concentration.
# (§4) With these parameters, the IC50's for each compound in each cell line was calculated using non-linear curve fitting analysis.
# [2] = molecular target: human EGFR L858R (NIH/3T3 cells) (Homo sapiens, UniProt P00533, L858R); assay: EGFR target modulation in engineered NIH/3T3 cell lines (phospho-EGFR Y1068 AlphaLISA), EGFR L858R; type: cell-based; conditions: engineered NIH/3T3 cells, read-out: NIH3T3 IC50 (μM) EGFR (L858R)
# Sequence of human EGFR L858R (NIH/3T3 cells) (P00533 25-1210 L858R): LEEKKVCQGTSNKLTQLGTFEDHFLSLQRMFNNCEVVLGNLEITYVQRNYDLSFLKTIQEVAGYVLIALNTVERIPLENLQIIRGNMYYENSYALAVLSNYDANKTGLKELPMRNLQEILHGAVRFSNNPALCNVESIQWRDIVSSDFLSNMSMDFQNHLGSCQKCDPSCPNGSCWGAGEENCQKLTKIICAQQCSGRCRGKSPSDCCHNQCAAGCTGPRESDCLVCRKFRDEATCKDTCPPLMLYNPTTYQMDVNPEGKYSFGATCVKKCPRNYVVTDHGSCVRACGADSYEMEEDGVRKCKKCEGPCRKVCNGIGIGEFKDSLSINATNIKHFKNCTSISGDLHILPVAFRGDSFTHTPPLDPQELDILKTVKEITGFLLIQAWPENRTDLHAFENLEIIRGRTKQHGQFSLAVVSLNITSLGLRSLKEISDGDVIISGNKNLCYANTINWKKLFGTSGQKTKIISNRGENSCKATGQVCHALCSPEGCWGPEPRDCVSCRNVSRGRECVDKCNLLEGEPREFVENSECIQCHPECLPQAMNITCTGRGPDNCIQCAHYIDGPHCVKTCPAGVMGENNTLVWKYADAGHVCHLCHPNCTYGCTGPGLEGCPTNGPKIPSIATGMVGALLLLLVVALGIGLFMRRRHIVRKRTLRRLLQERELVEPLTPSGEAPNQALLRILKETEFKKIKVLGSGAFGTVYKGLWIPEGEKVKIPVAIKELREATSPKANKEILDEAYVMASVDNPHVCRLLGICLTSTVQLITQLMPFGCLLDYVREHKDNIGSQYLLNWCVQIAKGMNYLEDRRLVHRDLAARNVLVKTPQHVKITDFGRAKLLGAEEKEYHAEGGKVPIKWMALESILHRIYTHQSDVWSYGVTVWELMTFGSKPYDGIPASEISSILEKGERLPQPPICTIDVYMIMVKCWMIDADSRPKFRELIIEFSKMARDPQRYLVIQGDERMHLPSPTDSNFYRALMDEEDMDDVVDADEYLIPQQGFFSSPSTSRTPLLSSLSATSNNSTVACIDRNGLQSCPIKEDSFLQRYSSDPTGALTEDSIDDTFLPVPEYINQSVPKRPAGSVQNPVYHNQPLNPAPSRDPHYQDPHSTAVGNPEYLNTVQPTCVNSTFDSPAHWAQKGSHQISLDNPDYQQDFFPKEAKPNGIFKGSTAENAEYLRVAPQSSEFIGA
# Description: as §1, §2, §3, §4
# [3] = molecular target: human EGFR L858R/T790M (NIH/3T3 cells) (Homo sapiens, UniProt P00533, L858R/T790M); assay: EGFR target modulation in engineered NIH/3T3 cell lines (phospho-EGFR Y1068 AlphaLISA), EGFR L858R/T790M; type: cell-based; conditions: engineered NIH/3T3 cells, read-out: NIH3T3 IC50 (μM) EGFR (L858R/T790M)
# Sequence of human EGFR L858R/T790M (NIH/3T3 cells) (P00533 25-1210 T790M/L858R): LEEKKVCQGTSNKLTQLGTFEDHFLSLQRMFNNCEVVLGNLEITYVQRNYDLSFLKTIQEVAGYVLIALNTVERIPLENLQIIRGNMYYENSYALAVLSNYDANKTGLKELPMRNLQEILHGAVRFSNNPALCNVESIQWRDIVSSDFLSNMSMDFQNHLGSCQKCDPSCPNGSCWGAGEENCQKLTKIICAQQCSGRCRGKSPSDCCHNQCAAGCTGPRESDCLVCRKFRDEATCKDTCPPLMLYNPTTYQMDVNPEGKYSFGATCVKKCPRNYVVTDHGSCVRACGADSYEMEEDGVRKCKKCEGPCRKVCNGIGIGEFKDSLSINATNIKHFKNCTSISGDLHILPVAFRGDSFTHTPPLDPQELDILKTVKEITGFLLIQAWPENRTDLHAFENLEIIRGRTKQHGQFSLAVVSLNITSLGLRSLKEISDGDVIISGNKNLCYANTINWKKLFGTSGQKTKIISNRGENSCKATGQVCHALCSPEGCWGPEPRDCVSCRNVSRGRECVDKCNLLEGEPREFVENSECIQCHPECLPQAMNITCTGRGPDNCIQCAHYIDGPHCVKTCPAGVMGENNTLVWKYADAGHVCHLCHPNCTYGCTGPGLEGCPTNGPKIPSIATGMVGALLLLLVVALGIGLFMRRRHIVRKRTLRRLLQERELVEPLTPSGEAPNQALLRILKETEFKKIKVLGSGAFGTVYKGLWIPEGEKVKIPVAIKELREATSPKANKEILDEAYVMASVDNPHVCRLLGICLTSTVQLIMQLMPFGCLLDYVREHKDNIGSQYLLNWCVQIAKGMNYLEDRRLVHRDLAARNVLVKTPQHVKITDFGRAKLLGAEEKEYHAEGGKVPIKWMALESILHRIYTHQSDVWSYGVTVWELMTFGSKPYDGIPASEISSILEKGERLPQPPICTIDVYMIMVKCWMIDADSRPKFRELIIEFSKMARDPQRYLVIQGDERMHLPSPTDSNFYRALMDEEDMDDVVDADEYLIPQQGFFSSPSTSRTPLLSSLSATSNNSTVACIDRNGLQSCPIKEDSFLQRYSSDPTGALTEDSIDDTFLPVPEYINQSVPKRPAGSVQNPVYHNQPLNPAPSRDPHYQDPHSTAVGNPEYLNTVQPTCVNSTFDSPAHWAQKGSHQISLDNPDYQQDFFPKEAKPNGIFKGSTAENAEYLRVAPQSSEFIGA
# Description: as §1, §2, §3, §4
# [4] = EGFR (L858R/T790M) with 90 min pre-incubation, read-out: IC50 (μM) Column B
# [5] = EGFR (L858R/T790M) with no pre-incubation, read-out: IC50 (μM) Column A
# T1 sequence (P00533 669-1210 T790M/L858R): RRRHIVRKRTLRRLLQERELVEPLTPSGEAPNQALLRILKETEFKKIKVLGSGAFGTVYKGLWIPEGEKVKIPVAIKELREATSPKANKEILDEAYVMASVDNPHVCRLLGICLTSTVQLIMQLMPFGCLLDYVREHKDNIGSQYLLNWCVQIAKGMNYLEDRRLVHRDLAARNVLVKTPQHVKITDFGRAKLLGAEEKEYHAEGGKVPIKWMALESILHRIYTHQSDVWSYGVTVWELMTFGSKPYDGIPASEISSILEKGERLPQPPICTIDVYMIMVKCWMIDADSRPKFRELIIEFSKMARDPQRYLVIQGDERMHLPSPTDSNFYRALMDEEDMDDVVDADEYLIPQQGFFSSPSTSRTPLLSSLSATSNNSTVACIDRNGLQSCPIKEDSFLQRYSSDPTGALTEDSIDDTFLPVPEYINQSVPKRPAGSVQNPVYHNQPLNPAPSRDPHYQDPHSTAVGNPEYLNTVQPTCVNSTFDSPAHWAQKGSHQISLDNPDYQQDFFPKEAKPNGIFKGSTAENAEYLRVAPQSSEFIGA
SMILES,IC50 (EGFR(L858R/T790M); [4]) [µM],IC50 (EGFR(L858R/T790M); [5]) [µM],IC50 [1] [µM],IC50 [2] [µM],IC50 [3] [µM]
Cc1cccc2nc(NC(=O)c3ccnc(N(C)C)c3)n(C3CCCCN(C(=O)/C=C/CN(C)C)C3)c12 (stereo not shown) [Example 17-50],< 0.001,0.009,0.086,0.005,0.009
C=CC(=O)N1CCCC(n2c(NC(=O)c3cccc(C(F)(F)F)c3)nc3c2CCN(C(C)=O)C3)C1 (stereo not shown) [Example 17-169],0.186,1.75,8.2,1.75,0.14
Cc1cccc2nc(NC(=O)c3ccn(C)c(=O)c3)n(C3CCCCN(C(=O)/C=C/CN(C)C)C3)c12 (stereo not shown) [Example 17-49],0.001,0.029,0.33,0.006,0.027
Cc1cccc2nc(NC(=O)c3ccnnc3)n([C@@H]3CCCCN(C(=O)C4=COCCO4)C3)c12 [Example 17-89],2.32,1.01,0.7,0.46,7.5
"C=CC(=O)N1CCC[C@@H](n2c(NC(=O)c3cccc(C(F)(F)F)c3)nc3cc(C(=O)O)ccc32)C1 [Example 18, (R)-1-(1-acryloylpiperidin-3-yl)-2-(3-(trifluoromethyl)benzamido)-1H-benzo[d]imidazole-5-carboxylic acid]",0.041,2.59,> 10,> 10,6.3
Cc1cccc(C(=O)Nc2nc3cccc(C)c3n2C2CCCCN(C(=O)/C=C/CN(C)C)C2)c1 (stereo not shown) [Example 17-41],< 0.001,0.008,0.44,0.012,0.004
C=CC(=O)N1CCCC[C@@H](n2c(NC(=O)c3cccc(C(F)(F)F)c3)nc3cccc(Cl)c32)C1 [Example 17-18],< 0.001,0.014,2.48,0.02,0.004
C=CC(=O)N1CCOCC(n2c(NC(=O)c3ccccc3)nc3cccc(-c4nc(C)no4)c32)C1 (stereo not shown) [Example 17-141],0.01,0.247,7.8,0.68,0.097
Cc1cccc2nc(NC(=O)c3cc(Cl)nc(OC(F)(F)F)c3)n([C@@H]3CCCCN(C(=O)/C=C/CN(C)C)C3)c12 [Example 17-104],< 0.001,0.018,0.61,0.023,0.02
C=CC(=O)N1CCCC(n2c(NC(=O)c3cccc(C(F)(F)F)c3)nc3c2CCN(C(=O)OC)C3)C1 (stereo not shown) [Example 17-167],0.128,2.62,> 10,4.8,0.14
"C=CC(=O)N1CCCCC(n2c(NC(=O)c3cccc(C(F)(F)F)c3)nc3cccc(CN4CCCC4)c32)C1 (stereo not shown) [Example 11, N-(1-(1-acryloyazepan-3-yl)-7-(pyrrolidin-1-ylmethyl)-1H-benzo[d]imidazol-2-yl)-3-(trifluoromethyl)benzamide]",< 0.001,0.012,0.12,0.002,0.002
C=C(CN1CCCCC1)C(=O)N1CCCC[C@@H](n2c(NC(=O)c3ccnnc3)nc3cccc(C)c32)C1 [Example 17-90],0.013,0.199,0.76,0.054,0.055
C=CC(=O)N1CCCC(n2c(NC(=O)c3cccc(C(F)(F)F)c3)nc3c2CN(C(C)=O)CC3)C1 (stereo not shown) [Example 17-172],0.268,1.75,8.7,1.4,0.173
Cc1cccc2nc(NC(=O)c3ccnc(Cl)c3)n([C@@H]3CCCCN(C(=O)/C=C/CN(C)C)C3)c12 [Example 17-73],< 0.001,< 0.001,0.016,0.001,< 0.001
Cc1cccc2nc(NC(=O)c3cccc(C(F)(F)F)c3)n([C@H]3COCCN(C(=O)/C=C/CN(C)C)C3)c12 [Example 17-6],0.01,0.189,6,0.7,0.244
C=CC(=O)N1CCCC[C@@H](n2c(NC(=O)c3ccccc3)nc3cccc(CO)c32)C1 [Example 17-131],< 0.001,0.005,0.311,0.01,0.002
"C=CC(=O)N1CCCC[C@H](n2c(NC(=O)c3cccc(C(F)(F)F)c3)nc3cccc(C)c32)C1 (single isomer, unassigned) [Example 21-3]",0.098,0.7,> 10,2.2,0.45
"C=CC(=O)N1CCCCC(n2c(NC(=O)c3cccc(C(F)(F)F)c3)nc3cccc(C(=O)O)c32)C1 (stereo not shown) [Example 20, 1-(1-acryloylazepan-3-yl)-2-(3-(trifluoromethyl)benzamido)-1H-benzo[d]imidazole-7-carboxylic acid]",0.005,0.11,> 10,3.3,0.82
"C=CC(=O)N1CCOCC(n2c(NC(=O)c3cccc(C(F)(F)F)c3)nc3cccc(C)c32)C1 (single isomer, unassigned) [Example 21-7B]",< 0.001,0.008,0.65,0.012,0.002
C=CC(=O)N1CCCC(n2c(NC(=O)c3cccc(C(F)(F)F)c3)nc3c2CN(C)CC3)C1 (stereo not shown) [Example 17-173],0.285,6.6,> 10,0.67,0.84
C=CC(=O)N1CCOCC(n2c(NC(=O)c3cccc(C(F)(F)F)c3)nc3cccc(C)c32)C1 (stereo not shown) [Example 17-14],0.005,0.033,1.08,0.016,0.003
C=CC(=O)N1CCC[C@@H](n2c(NC(=O)c3cccc(C(F)(F)F)c3)nc3cc(CN4CCC(F)(F)C4)ccc32)C1 [Example 17-125],0.003,0.068,> 7.6,0.087,0.013
"Cc1ncc(C(=O)Nc2nc3cccc(C)c3n2C2CCCCN(C(=O)/C=C/CN(C)C)C2)s1 (single isomer, unassigned) [Example 21-8A]",0.033,0.62,0.98,0.211,0.138
